# Results reported in patent US6251949A, “Oxime derivatives, hydrazone derivatives and use thereof” (Shionogi & Co., Ltd., priority 1996, dated 2001).
# What was measured:
# Assay type in all cases: in vivo
# tachykinin receptor [1] = molecular target: T1, tachykinin receptor (Cavia porcellus, UniProt P30547); test: Tachykinin receptor antagonistic effect: capsaicin-induced increase in blood vessel permeability, trachea; settings: guinea pig, iv, read-out: ED50 Guinea pig trachea
# T1 construct: from tissue; host or cells: guinea pig trachea, in vivo
# T1 sequence (P30547 whole entry): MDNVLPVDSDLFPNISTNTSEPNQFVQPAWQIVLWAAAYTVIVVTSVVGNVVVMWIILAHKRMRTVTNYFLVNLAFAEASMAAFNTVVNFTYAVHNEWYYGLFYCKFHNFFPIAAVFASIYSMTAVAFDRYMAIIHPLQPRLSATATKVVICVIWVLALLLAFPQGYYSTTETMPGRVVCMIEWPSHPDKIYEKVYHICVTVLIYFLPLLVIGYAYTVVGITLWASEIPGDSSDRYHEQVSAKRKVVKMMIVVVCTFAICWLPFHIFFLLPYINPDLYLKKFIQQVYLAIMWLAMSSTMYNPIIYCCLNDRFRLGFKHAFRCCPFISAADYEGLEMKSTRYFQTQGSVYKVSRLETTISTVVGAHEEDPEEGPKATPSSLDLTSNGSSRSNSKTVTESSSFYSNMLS
# Experimental: (§1) The tachykinin receptor antagonistic effect of a compound according to the present invention was investigated by the method described below.
# (§2) [Effect of compound on capsaicin-induced increase in blood vessel permeability]
# (§3) 5 Minutes after giving Evans Blue (30 mg/kg, i.v.) to a guinea pig anesthetized with pentobarbital (30 mg/kg, i.p.), a test compound dissolved in […] was injected intravenously. After further 5 minutes, capsaicin (0.15 mg/kg, i.v.) was given to induce the plasma transudation. 5 Minutes after administration of capsaicin, the guinea pig was sacrificed to isolate the trachea and the urinary bladder. After extraction with formamide for 24 hours, the dye content in each tissue was quantified on the basis of the absorbance at 620 nm, and the amount of the dye transudated into the tissue was calculated from the calibration curve.
# (§4) By the method described above, the amount of the compound required to obtain 50% suppression (ED50) was determined and represented in units (mg/kg).
# tachykinin receptor [2] = molecular target: T1, tachykinin receptor; test: Tachykinin receptor antagonistic effect: capsaicin-induced increase in blood vessel permeability, urinary bladder; settings: guinea pig, iv, read-out: ED50 Guinea pig urinary bladder
# Experimental: as §1, §2, §3, §4
# Pyricularia oryzae = settings: rice seedling, 6 days after inoculation
Structure (SMILES),ED50 (tachykinin receptor [1]),ED50 (tachykinin receptor [2]),Controlling effect on rice blight (Pyricularia oryzae) by foliage application at 500 ppm (% control) (Pyricularia oryzae)
CON=C(C(=O)N1CCOCC1)C(C)=NOCc1ccccc1 [Compound W-176],0.145 mg/kg,0.075 mg/kg,
"O=C1OCc2c(Cl)c(Cl)c(Cl)c(Cl)c21 [Fthalide, reference compound]",,,97%
CON=C(C)C(=NOCc1ccccc1Cl)C(=O)N1CCC(NC(C)=O)CC1 [Compound M-11],0.024 mg/kg,,
CON=C(C(=O)N1CCN(C)CC1)C(C)=NOCc1ccccc1Cl [Compound b-251],0.017 mg/kg,0.017 mg/kg,
C=CCON=C(C)C(=NOCc1ccc(OC)cc1Cl)C(=O)N(C)C [Compound C-95],,,90%
C=CCON=C(C)C(=NOCc1ccc(Cl)c(Cl)c1)C(=O)N(C)C [Compound C-96],,,90%
C=CCON=C(C)C(=NOCc1ccc(Cl)c(Cl)c1)C(=O)N1CCOCC1 [Compound W-96],0.04 mg/kg,,
C=CCON=C(C)C(=NOCc1ccccc1Cl)C(=O)N(C)C [Compound C-86],,,90%
CON=C(C)C(=NOCc1ccccc1Cl)C(=O)N(C)C [Compound C-11],,,90%
C=CCON=C(C(=O)N1CCN(C)CC1)C(C)=NOCc1ccccc1 [b-180],0.054 mg/kg,0.087 mg/kg,
C=CCON=C(C)C(=NOCc1ccccc1Cl)C(=O)N1CCC(NC(C)=O)CC1 [Compound M-86],0.085 mg/kg,,
